Measured values: patent publication US11376272B2, “Methods of modulating immune activity” (Flagship Pioneering Innovations V, Inc., priority 2019, dated 2022)

Experiments:
IFN-beta [1] = test: IFN-beta secretion from J774 macrophages (ELISA); format: cell-based, mouse; details: J774 macrophages exposed to HeLa/PBS conditioned media in combination with 2′3′-cGAMP, 24 hours
Description: (§1) HeLa cervical cancer cells were grown in PBS (nutrient-deprivation) for 48 hours. THP1 cells were then treated with the HeLa-PBS (nutrient deprived) conditioned media in the presence and absence of 2′3′-cGAMP. THP1 supernatants were then assayed for the secretion of IFN-beta, a cytokine regulated by IRF. The same experiment was additionally performed using the mouse macrophage cell line J774 in place of the THP1 cells.
(§2) To generate conditioned media, 3 million HeLa cells were seeded in a 10 cm dish in DMEM containing 10% FBS. Cells were left overnight to adhere and then plates were washed 3× with PBS prior to replacing media with either fresh DMEM containing 10% FBS, or with PBS. Cells were incubated for 48 hours, and then the conditioned media was removed, spun down and sterile filtered.
The same experiment was additionally performed using J774 cells (ATCC, TIB-67). In brief 500,000 cells/well were seeded in a 24-well plate. After cell adherence, media was refreshed, and HeLa conditioned media was added either in the presence or absence of 2′3′-cGAMP (as described above). After 24 hours J774 supernatant was removed an assayed for IFN-beta secretion as described above.

NfkB = NfkB reporter activity in THP1-Dual cells (QuantiBlue); format: cell-based, human; details: 24 hours
Description: (§3) HeLa cervical cancer cells were grown in either DMEM containing 10% FBS (standard culture conditions), or in PBS (nutrient-deprivation) for 48 hours. Conditioned media from each condition was then transferred to THP1-Dual cells in the presence of 300 ng/ml of 2′3′-cGAMP (purchased from Invivogen, cat no. tlrl-nacga23, and resuspended in water). THP1 cells treated with conditioned media were incubated for an additional 24 hours. THP1 supernatants were then assessed for NfkB or IRF reporter activity.
HeLa cells were acquired from the ATCC (catalog no. CCL 2.2) and were cultured in DMEM containing 10% FBS. THP1-Dual cells, which are human monocytes that report on both the NfkB and IRF pathways, were purchased from Invivogen (cat no. thpd-nfis) and were cultured in RPMI containing 10% FBS and 100 μg/ml normocin. […]
To measure IRF or NfkB pathway activation, 35,000 THP1-Dual cells/well were seeded in a 96-well plate (100 μl/well). […] After a 24 hour incubation period, IRF and NfkB activity were measured. To measure IRF activity, 50 μl of THP1 supernatant was transferred to a 96-well plate, and 50 μl of QuantiLuc reagent was added to each well immediately prior to reading luminescence by a platereader. […] The plate was then incubated at room temperature for 2-3 hours prior to reading the absorbance at 655 nm.

IFN-beta [2] = test: IFN-beta secretion from THP1 monocytes (ELISA); format: cell-based, human; details: THP1 monocytes exposed to HeLa/PBS conditioned media in combination with 2′3′-cGAMP 300 ng/ml, 24 hours
Description: as §1, §2
500,000 THP1-Dual cells/well were seeded in a 24-well plate. 500 μl (1:1 dilution) of each condition was added to the well (PBS; PBS+300 ng/ml cGAMP; HeLa-PBS CM; HeLa-PBS CM+300 ng/ml cGAMP) and incubated for 24 hours. Cell supernatants were then spun down and sterile filtered prior to performing ELISA assay. ELISA assay was performed using the human IFN-beta DuoSet ELISA kit (DY814-05) and following the protocol provided by the manufacturer.

IRF = IRF reporter activity in THP1-Dual cells treated with conditioned media and/or compounds (QuantiLuc); format: cell-based, human
Description: as §3
HeLa cells were acquired from the ATCC (catalog no. CCL 2.2) and were cultured in DMEM containing 10% FBS. THP1-Dual cells, which are human monocytes that report on both the NfkB and IRF pathways, were purchased from Invivogen (cat no. thpd-nfis) and were cultured in RPMI containing 10% FBS and 100 μg/ml normocin.
as §2
To measure IRF or NfkB pathway activation, 35,000 THP1-Dual cells/well were seeded in a 96-well plate (100 μl/well). 100 μl of HeLa conditioned media was transferred to each well, plus or minus 2′3′-cGAMP (300 ng/ml final concentration). After a 24 hour incubation period, IRF and NfkB activity were measured. To measure IRF activity, 50 μl of THP1 supernatant was transferred to a 96-well plate, and 50 μl of QuantiLuc reagent was added to each well immediately prior to reading luminescence by a platereader. To measure NfkB activity, 50 μl of THP1 supernatant was transferred to a 96-well plate containing 200 μl of QuantiBlue reagent. The plate was then incubated at room temperature for 2-3 hours prior to reading the absorbance at 655 nm.
THP1-Dual cells (acquired from Invivogen) were seeded at 35,000 cells/well in a 96-well plate (100 μl/well). In a separate treatment plate, a 3-fold dose-response curve of each CDN was prepared, starting at 40 μg/ml, in either plain PBS or in combination with HeLa-PBS conditioned media (conditioned media prepared as previously described). 100 μl of compound treatment was transferred to THP1 cells (1:1 dilution) and cells were incubated for 24 hours. THP1 supernatants were subsequently removed and assayed for IRF activity.
THP1-Dual cells were plated at 35,000 cells/well in 96-well format. To each well, 100 μl of conditioned media was added (in triplicate) in the presence or absence of 2′3′-cGAMP (300 ng/ml). THP1-Dual cells were then incubated for 24 hours with conditioned media prior to assaying IRF induction.
THP1-Dual cells (acquired from Invivogen) were seeded at 35,000 cells/well in a 96-well plate (100 μl/well). In a separate treatment plate, a 3-fold dose-response curve of each purinergic receptor antagonist was prepared, starting at 20 μM, in either 2′3′-cGAMP alone or 2′3′-cGAMP in combination with HeLa-PBS conditioned media (conditioned media prepared as described in examples above). 100 μl from the treatment plate was then transferred to THP1 cells (1:1 dilution), and the cells were incubated for 24 hours. THP1 supernatants were removed and tested for IRF activity.
THP1 cells, acquired from Invivogen, were seeded at 35,000 cells/well in 96-well format, in 100 μl media. In a separate treatment plate, a dose curve of PSB 1114, starting at 20 μM, was prepared in either plain PBS, or in the presence of cGAMP. 100 μl from treatment plate was transferred to THP1 cells (1:1 dilution), and cells were incubated for 24 hours prior to IRF and NfkB read-out.
THP1 cells, acquired from Invivogen, were seeded at 35,000 cells/well in 96-well format, in 100 μl media. In a separate treatment plate, a dose curve of Diquafosol (acquired from MedChemExpress), starting at 100 μM, was prepared in either plain PBS, or in the presence of cGAMP. […]

human STING alleles = details: HEK293T cells; Corrales et al., 2015; cited from earlier work
[3] = tested on: A20 B-cell lymphoma tumor cells; test: Survival in mouse model of A20 B-cell lymphoma; format: in vivo, BALB/c mice; details: combination of 1 μg/kg ADU-S100 and 10 mg/animal diquafosol tetrasodium intratumorally once per day (Group 5), relative to either agent alone (Groups 2, 4)
Description: Test BALB/c mice were injected subcutaneously in the right flank with 1×10^6 A20 B-cell lymphoma tumor cells (in a 0.1 mL cell suspension). Sixteen days after tumor cell implantation, on Day 1 of the study, animals were sorted into ten groups (n=10) with individual tumor volumes between 48 and 100 mm^3 and a group mean tumor volume of 81 mm^3. Five groups of mice were dosed according in the following treatment groups.
Group 1 received Vehicle (PBS) intratumorally once per day. • Group 2 received 1 μg/kg of the STING agonist (ADU-S100) intratumorally once per day. • Group 3 received 50 μg/kg of the STING agonist (ADU-S100) intratumorally once per day. • Group 4 received 10 mg/animal of the purinergic receptor agonist (diquafosol testrasodium) intratumorally once per day. • Group 5 received 1 μg/kg ADU-S100 intratumorally combined with 10 mg/animal of diquafosol testrasodium intratumorally once per day.
ADU-S100 and Diquafosol tetrasodum were dosed intratumorally (itu) in a total volume of 50 μL of therapeutic agents; combination therapies were administered as single injections containing 2×25 μL of 2× dosing solutions.
Tumors were measured using calipers twice per week.

CT26 colon carcinoma = details: Corrales et al., 2015; cited from earlier work
B16.F10 melanoma = details: Corrales et al., 2015; cited from earlier work
IFN-β = details: PBMCs isolated from multiple donors with different STING genotypes; Corrales et al., 2015; cited from earlier work
4T1 mammary carcinoma = details: Corrales et al., 2015; cited from earlier work
[4] = combination of Diquafosol (dose curve starting at 100 μM) and cGAMP, THP1 cells, 24 hours
[5] = combination of PSB 1114 (dose curve starting at 20 μM) and 2′3′-cGAMP, THP1 cells, 24 hours
[6] = combination of Diquafosol (dose curve starting at 100 μM) and ADU-S100 (2 μM), THP1 cells, 24 hours

Nc1nc2c(ncn2[C@@H]2O[C@@H]3COP(=O)(O)O[C@H]4[C@@H](O)[C@H](n5cnc6c(N)ncnc65)O[C@@H]4COP(=O)(O)O[C@@H]2[C@@H]3O)c(=O)[nH]1 [2′3′-cGAMP]
IFN-beta secretion (IFN-beta [1]): increased | NFKB signaling (NfkB; combination of conditioned media from HeLa cells in DMEM+10% FBS (standard culture) and 2′3′-cGAMP 300 ng/ml): only slightly induced | NFKB signaling (NfkB; combination of nutrient-starved (PBS, 48 hours) HeLa conditioned media and 2′3′-cGAMP 300 ng/ml): increased | IFN-beta secretion (IFN-beta [2]): increased | IRF signaling (IRF; [4]): induced IRF signaling | IRF signaling (IRF; [5]): induced IRF signaling | IRF signaling (IRF; combination of conditioned media from HeLa cells in DMEM+10% FBS (standard culture) and 2′3′-cGAMP 300 ng/ml, THP1-Dual cells, 24 hours): only slightly induced | IRF signaling (IRF; combination of nutrient-starved (PBS, 48 hours) HeLa conditioned media and 2′3′-cGAMP 300 ng/ml, THP1-Dual cells, 24 hours): increased | IRF signaling (IRF; combinations of cGAMP with purinergic receptor agonist nucleotide triphosphates, human monocytes, data not shown): induced IRF signaling | IRF activation (IRF; conditioned media (PBS, 48 hours) of A549, A427, J774, AMJ2C11, PANC1, MLE12, RAW264, Calu-1, MCF7 cells in combination with 2′3′-cGAMP 300 ng/ml, THP1-Dual cells, 24 hours): induced IRF activation

Nc1ncnc2c1ncn2[C@@H]1O[C@@H]2COP(=O)([S-])O[C@@H]3[C@H](O)[C@@H](COP([O-])(=S)O[C@H]2[C@H]1O)O[C@H]3n1cnc2c(N)ncnc21.[Na+].[Na+] (some centres unmarked) [ADU-S100]
STING activation (human STING alleles): broadly activate all known human STING alleles | survival [3]: much greater effect on increasing survival | antitumor immune response and tumor regression (CT26 colon carcinoma): potent antitumor immune response and significant tumor regression | antitumor immune response and tumor regression (B16.F10 melanoma): potent antitumor immune response and significant tumor regression | IRF signaling (IRF; combination of ADU-S100 (dose curve starting at 20 μM) and nutrient starved (PBS) HeLa conditioned media, THP1 cells, 24 hours): strongly increased IRF signaling | IRF signaling (IRF; [6]): synergizes | expression of IFN-β (IFN-β): induced dose-dependent expression of IFN-β | antitumor immune response and tumor regression (4T1 mammary carcinoma): potent antitumor immune response and significant tumor regression

Cc1ccc2c(c1)C=Cc1cc(C)ccc1C2c1cn(Cc2ccc(C(=O)Nc3nn[nH]n3)o2)c(=O)[nH]c1=S [AR-C 118925]
synergistic induction of IRF activity by cGAMP in combination with HeLa-PBS conditioned media (IRF; purinergic receptor antagonist 3-fold dose-response starting at 20 μM, THP1-Dual cells, 24 hours): inhibited

O=c1ccn([C@@H]2O[C@H](COP(=O)(O)OP(=O)(O)OP(=O)(O)OP(=O)(O)OC[C@H]3O[C@@H](n4ccc(=O)[nH]c4=O)[C@H](O)[C@@H]3O)[C@@H](O)[C@H]2O)c(=O)[nH]1 [Diquafosol]
survival [3]: much greater effect on increasing survival | IRF signaling (IRF; [6]): synergizes | IRF signaling (IRF; [4]): induced IRF signaling

O=c1[nH]c(=S)ccn1[C@@H]1O[C@H](COP(=O)(O)OP(=O)(O)C(F)(F)P(=O)(O)O)[C@@H](O)[C@H]1O [PSB 1114]
IRF signaling (IRF; [5]): induced IRF signaling
